The values that follow come from patent US10106519B2, “3-phenyl-7-hydroxy-isocoumarins as macrophage migration inhibitory factor (MIF) inhibitors” (The Provost, Fellows, Foundation Scholars, & the Other …, priority 2014, dated 2018).

The test system of the experiment is LPS induced TNF-α production. Description: Inhibition of LPS induced TNF-α production in RAW 264.7 macrophage cells (ELISA). The format is cell-based, mouse. As to the method:
RAW 264.7 macrophage cells were plated at 1×10^5/ml in 450 μl of medium in a 48 well plate. 16 hours later cells were treated with ISO-1 or Tautomerase Inhibitors at a final concentration of 10, 50 or 100 μM for 30 minutes before stimulation with 100 ng/ml LPS. Supernatants were collected after 20 hours for determination of TNF-α levels. TNF-α levels were determined using a TNF-α specific ELISA (CAT # DY410 R&D Syst).
96 well plates were coated with 50 μl of Capture Antibody ([…]) in PBS and sealed and incubated overnight at 4° C. Plates were then washed three times in 0.05% PBS Tween and plates blotted. Plates were blocked by adding 150 μl of 1% BSA in PBS (Gibco—cat no. 14190-094) to each well and incubated at room temperature for 2 hours. Plates were washed again as previously described. 50 μl of sample or standard was added to each well and incubated for overnight at 4° C. Plates were then washed again as described. 50 μl of the detection Antibody (200 ng/ml) in 1% BSA in PBS was added to each well and incubated for 2 hours at room temperature. Plates were then washed again as described. 50 μl of working concentration of Streptavidin—HRP was added to each well and plates were covered and incubated for 20 minutes at room temperature. 50 μl of substrate solution (One OPD tablet and one urea hydrogen peroxide/buffer tablet were dissolved in 20 ml of water to yield a ready to use buffered solution, Sigma—cat no. 9187-50) was added to each well and incubated for 20 minutes at room temperature. 25 μl of 2N H2SO4 was added to each well to stop the reaction. The optical density of each well was then measured with a spectrophotometer at 450 nm.
Initially the panel of 25 novel potential tautomerase inhibitors was screened in an in-vitro system. In order to do this we exploited the fact that MIF is needed for optimal LPS induced TNF-α production. We therefore reasoned that our potential TIs should be able to inhibit LPS induced TNF-α in RAW macrophage murine cells. RAW macrophage murine cells were plated at 37° C. in a humidified 5% CO2 incubator. 16 hours later the cells were pre-treated with each of the inhibitors at concentration of 100, 50 or 10 μM for 30 minutes 100 ng/ml of LPS was then added to the cells and supernatants were collected after 16 hours and analysed for TNF-α production by ELISA.
A general note: An ELISA detects its analyte on a solid surface through an enzyme-linked reagent.

SMILES strings stand for the structures. “Also recorded” adds a separate entry of the source.

`Cc1ccccc1-c1cc2ccccc2c(=O)o1` [TI 19]: the “reduction of TNF-α production, in words” value reads like this: (10 μM inhibitor (FIG. 2C)) “more effective than ISO-1”; (50 μM inhibitor (FIG. 2B)) “more effective than the commercial standard ISO-1”; (concentration not given) “more effective at reducing TNF-α than the commercially available ISO-1; also recorded: reduction in TNF-α production”.
